The text below walks through data of patent publication US6930131B2, “Aryl substituted 3-ethoxy phenyl trifluoromethane sulfonamides for the treatment of non-insulin dependent diabetes mellitus (NIDDM)” (Wyeth, priority 2002, dated 2005).

SMILES strings stand for the structures.

For orientation: melting point means the temperature, or range, at which the solid turns liquid. Compound `COc1ccc(-c2cccc(COCCc3cccc(NS(=O)(=O)C(F)(F)F)c3)c2)cc1` [Example 28, C,C,C-Trifluoro-N-{3-[2-(4′-methoxy-biphenyl-3-ylmethoxy)-ethyl]-phenyl}-methanesulfonamide] registered a melting point of 88 to 90 °C.

`O=S(=O)(Nc1cccc(CCOCc2csc(-c3ccc(OC(F)(F)F)cc3)n2)c1)C(F)(F)F` [Example 61, C,C,C-Trifluoro-N-(3-{2-[2-(4-trifluoromethoxy-phenyl)-thiazol-4-yl-methoxy]-ethyl}-phenyl)-methanesulfonamide] displayed a melting point of 115 to 116 °C.

Take `O=S(=O)(Nc1cccc(CCOCc2csc(-c3ccccc3)n2)c1)C(F)(F)F` [Example 58, C,C,C-Trifluoro-N-{3-[2-(2-phenyl-thiazol-4-ylmethoxy)-ethyl]phenyl}-methane sulfonamide]: the melting point fell in the range of 112 to 113 °C.

`O=S(=O)(Nc1cccc(CCOCc2cccc(-c3ccccc3)n2)c1)C(F)(F)F` [Example 65, C,C,C-Trifluoro-N-{3-[2-(6-phenyl-pyridin-2-ylmethoxy)-ethyl]-phenyl}-methane sulfonamide] came in with a melting point of 75 to 77 °C.

As to `COc1ccc(-c2ccc(Cl)cc2)cc1COCCc1cccc(NS(=O)(=O)C(F)(F)F)c1` [Example 40, N-{3-[2-(4′-Chloro-4-methoxy-biphenyl-3-ylmethoxy)-ethyl]-phenyl}-C,C,C-trifluoromethanesulfonamide], the melting point was in the range of 99 to 101 °C.

`O=S(=O)(Nc1cccc(CCOCc2cccc(OCc3ccccc3)c2)c1)C(F)(F)F` [Example 73, N-{3-[2-(3-benzyloxy-benzyloxy)-ethyl]-phenyl}-C,C,C-trifluoro-methanesulfonamide] displayed a melting point of 62 to 63 °C.

`O=S(=O)(Nc1cccc(CCOCc2ccc(-c3ccc(Cl)cc3Cl)cc2F)c1)C(F)(F)F` [Example 15, N-{3-[2-(2′,4′-Dichloro-3-fluoro-biphenyl-4-ylmethoxy)-ethyl]-phenyl}-C,C,C-trifluoro-methanesulfonamide]: the melting point lay within 65 to 66 °C.

As for `O=S(=O)(Nc1cccc(CCOCc2ccc(-c3cccc(Cl)c3)cc2)c1)C(F)(F)F` [Example 5, N-{3-[2-(3′-Chloro-biphenyl-4-ylmethoxy)-ethyl]-phenyl}-C,C,C-trifluoromethane sulfonamide], the melting point is 105 to 107 °C.

`O=S(=O)(Nc1cccc(CCOCc2cccc(-c3ccc(F)cc3)n2)c1)C(F)(F)F` [Example 64, C,C,C-Trifluoro-N-(3-{2-[6-(4-fluoro-phenyl)-pyridin-2-ylmethoxy]-ethyl}-phenyl)-methanesulfonamide] came in with a melting point of 71 to 73 °C.

The compound `O=S(=O)(Nc1cccc(CCOCc2csc(-c3ccc(C(F)(F)F)cc3)n2)c1)C(F)(F)F` [Example 52, C,C,C-Trifluoro-N-(3-{2-[2-(4-trifluoromethyl-phenyl)-thiazol-4-ylmethoxy]-ethyl}-phenyl)-methanesulfonamide] had a melting point of 117 to 119 °C.

Compound `COc1cccc(-c2nc(COCCc3cccc(NS(=O)(=O)C(F)(F)F)c3)no2)c1` [Example 84, N-{3-[2-(5-(3-methoxy-phenyl)-[1,2,4]oxadiazol-3-ylmethoxy)-ethyl]-phenyl}-C,C,C-trifluoro-methanesulfonamide] had a melting point of 52 to 54 °C.

`COc1cccc(-c2ccc(COCCc3cccc(NS(=O)(=O)C(F)(F)F)c3)c(F)c2)c1` [Example 20, C,C,C-Trifluoro-N-{3-[2-(3-fluoro-3′-methoxy-biphenyl-4-yl-methoxy)ethyl]-phenyl}-methanesulfonamide] displayed a melting point of 80 to 82 °C.

`O=S(=O)(Nc1cccc(CCOCc2cccc(-c3ccc(F)cc3)c2)c1)C(F)(F)F` [Example 36, N-{3-[2-(4′-Fluoro-biphenyl-3-ylmethoxy)-ethyl]-phenyl)-C,C,C-trifluoro-methanesulfonamide] came in with a melting point of 48 to 50 °C.

The compound `O=S(=O)(Nc1cccc(CCOCc2nc(-c3ccc(C(F)(F)F)cc3)sc2Cl)c1)C(F)(F)F` [Example 63, N-(3-{2-[5-Chloro-2-(4-trifluoromethyl-phenyl)-thiazol-4-ylmethoxy]-ethyl}-phenyl)-C,C,C-trifluoromethanesulfonamide] returned a melting point of 107 to 109 °C.

For the compound `O=S(=O)(Nc1cccc(CCOCc2ccc(Oc3ccccc3)cc2)c1)C(F)(F)F` [Example 76, N-{3-[2-(4-Phenoxy-benzyloxy)-ethyl]-phenyl}-C,C,C-trifluoro-methane sulfonamide], the melting point was in the range of 47 to 49 °C.

Turning to `O=S(=O)(Nc1cccc(CCOCc2ccc(Br)cc2F)c1)C(F)(F)F` [Example 72, N-{3-[2-(4-Bromo-2-fluoro-benzyloxy)-ethyl]-phenyl}-C,C,C-trifluoro-methanesulfonamide], the melting point was 48 to 50 °C.

As to `Cc1cccc(-c2ccc(COCCc3cccc(NS(=O)(=O)C(F)(F)F)c3)c(F)c2)c1` [Example 16, C,C,C-Trifluoro-N-{3-[2-(3-fluoro-3′-methyl-biphenyl-4-yl-methoxy)-ethyl]-phenyl}-methanesulfonamide], the melting point is 60 to 61 °C.

As for `O=S(=O)(Nc1cccc(CCOCc2cccc(-c3cc(Cl)cc(Cl)c3)c2)c1)C(F)(F)F` [Example 34, N-{3-[2-(3′,5′-Dichloro-biphenyl-3-ylmethoxy)-ethyl]-phenyl)-C,C,C-trifluoro-methanesulfonamide], the melting point is 52 to 54 °C.

`O=S(=O)(Nc1cccc(CCOCc2ccc(-c3cccc(C(F)(F)F)c3)cc2F)c1)C(F)(F)F` [Example 17, C,C,C-Trifluoro-N-{3-[2-(3-fluoro-3′-trifluoromethyl-biphenyl-4-yl-methoxy)-ethyl]-phenyl}-methanesulfonamide] had a melting point of 60 to 61 °C.

In turn, `O=S(=O)(NCCc1cccc(OCc2noc(-c3ccc(C(F)(F)F)cc3)n2)c1)C(F)(F)F` [Example 82, N-{2-[3-(5-(4-Trifluoromethyl-phenyl) [1,2,4]oxadiazol-3-ylmethoxy)-phenyl]-ethyl}-C,C,C-trifluoro-methanesulfonamide] had a melting point of 83 to 86 °C.

The compound `CC(C)(C)c1ccc(-c2nc(COCCc3cccc(NS(=O)(=O)C(F)(F)F)c3)no2)cc1` [Example 81, N-{3-[2-(5-(4-tert-Butyl-phenyl)-[1,2,4]oxadiazol-3-ylmethoxy)-ethyl]-phenyl}-C,C,C-trifluoro-methanesulfonamide] yielded a melting point of 75 to 77 °C.

`O=S(=O)(Nc1cccc(CCOCc2noc(-c3cccc(C(F)(F)F)c3)n2)c1)C(F)(F)F` [Example 83, N-{3-[2-(5-(3-trifluoromethyl-phenyl)-[1,2,4]oxadiazol-3-ylmethoxy)-ethyl]-phenyl}-C,C,C-trifluoro-methanesulfonamide] had a melting point of 62 to 64 °C.

For `O=S(=O)(Nc1cccc(CCOCc2ccc(I)cc2)c1)C(F)(F)F` [Example 74, N-{3-[2-(4-Iodo-benzyloxy)-ethyl]-phenyl}-C,C,C-trifluoro-methanesulfonamide], the melting point is 48 to 50 °C.

`COc1ccc(-c2nc(COCCc3cccc(NS(=O)(=O)C(F)(F)F)c3)no2)cc1` [Example 85, N-{3-[2-(5-(4-methoxy-phenyl)-[1,2,4]oxadiazol-3-ylmethoxy)-ethyl]-phenyl}-C,C,C-trifluoro-methanesulfonamide] came in with a melting point of 88 to 90 °C.

`COc1ccc(-c2ccc(Cl)cc2)cc1COCCc1cccc(NC(N)=O)c1` [Example 41, {3-[2-(4′-Chloro-4-methoxy-biphenyl-3-ylmethoxy)-ethyl]-phenyl}-urea]: the melting point is 155 °C (dec.).

In the case of `O=S(=O)(Nc1cccc(CCOCc2cc(-c3ccc(F)cc3)ccc2Cl)c1)C(F)(F)F` [Example 29, N-{3-[2-(4-Chloro-4′-fluoro-biphenyl-3-ylmethoxy)-ethyl]-phenyl)-C,C,C-trifluoro-methanesulfonamide], the melting point lay in the range of 80 to 82 °C.

Compound `COc1ccc(-c2nc(COCCc3cccc(NS(=O)(=O)C(F)(F)F)c3)cs2)cc1` [Example 59, C,C,C-Trifluoro-N-(3-{2-[2-(4-methoxy-phenyl)-thiazol-4-ylmethoxy]-ethyl}-phenyl)-methanesulfonamide] yielded a melting point of 112 to 113 °C.

In the case of `O=S(=O)(Nc1cccc(CCOCc2noc(-c3ccc(C(F)(F)F)cc3)n2)c1)C(F)(F)F` [Example 87, N-{3-[2-(5-(4-trifluoromethylphenyl)-[1,2,4]oxadiazol-3-ylmethoxy)-ethyl]-phenyl}-C,C,C-trifluoro-methanesulfonamide], the melting point lay within 83 to 86 °C.

The compound `O=S(=O)(Nc1cccc(CCOCc2ccc(-c3ccc(F)cc3)cc2)c1)C(F)(F)F` [Example 37, N-{3-[2-(4′-Fluoro-biphenyl-4-ylmethoxy)-ethyl]-phenyl)-C,C,C-trifluoro-methanesulfonamide] returned a melting point of 65 to 67 °C.

Compound `NC(=O)Nc1ccc(CCOCc2ccccc2-c2ccccc2)cc1` [Example 38, {4-[2-(Biphenyl-2-ylmethoxy)-ethyl]-phenyl}-urea] gave a melting point of 143 to 144 °C.

With `COc1ccc(-c2ccc(F)cc2)cc1COCCc1cccc(NS(=O)(=O)C(F)(F)F)c1` [Example 30, N-{3-[2-(4′-Fluoro-4-methoxy-biphenyl-3-ylmethoxy)-ethyl]-phenyl)-C,C,C-trifluoro-methanesulfonamide], the melting point was 55 to 57 °C.

For the compound `O=S(=O)(Nc1cccc(CCOCc2csc(-c3ccccc3Cl)n2)c1)C(F)(F)F` [Example 60, N-(3-{2-[2-(2-Chloro-phenyl)-thiazol-4-ylmethoxy]-ethyl}-phenyl)-C,C,C-trifluoro-methanesulfonamide], the melting point was 86 to 87 °C.

Turning to `COc1ccc(-c2ccc(COCCc3cccc(NS(=O)(=O)C(F)(F)F)c3)cc2)cc1` [Example 4, C,C,C-Trifluoro-N-{3-[2-(4′-methoxy-biphenyl-4-ylmethoxy)-ethyl]-phenyl}-methanesulfonamide], the melting point fell in the range of 96 to 98 °C.

With `CC(C)(C)c1ccc(COCCc2cccc(NS(=O)(=O)C(F)(F)F)c2)cc1` [Example 69, N-{3-[2-(4-tert-Butyl-benzyloxy)-ethyl]-phenyl}-C,C,C-trifluoro-methane sulfonamide], the melting point lay in the range of 40 to 42 °C.
